# Patent US7981912B2, “Indole acetic acids exhibiting CRTH2 receptor antagonism and uses thereof” (Wyeth LLC, priority 2004, dated 2011)
# Tests used:
# human CRTH2 [1] = target: T1, human CRTH2 (Homo sapiens, UniProt Q9Y5Y4); assay: CRTH2 fluorescent imaging assay (intracellular calcium, antagonist mode); type: cell-based; parameters: expressed in transfected cells; host or cells: HT1080-hCRTH2; conditions: HT1080-hCRTH2 cells; block of calcium increase caused by 500 nM PGD2
# T1 sequence (Q9Y5Y4 1-395): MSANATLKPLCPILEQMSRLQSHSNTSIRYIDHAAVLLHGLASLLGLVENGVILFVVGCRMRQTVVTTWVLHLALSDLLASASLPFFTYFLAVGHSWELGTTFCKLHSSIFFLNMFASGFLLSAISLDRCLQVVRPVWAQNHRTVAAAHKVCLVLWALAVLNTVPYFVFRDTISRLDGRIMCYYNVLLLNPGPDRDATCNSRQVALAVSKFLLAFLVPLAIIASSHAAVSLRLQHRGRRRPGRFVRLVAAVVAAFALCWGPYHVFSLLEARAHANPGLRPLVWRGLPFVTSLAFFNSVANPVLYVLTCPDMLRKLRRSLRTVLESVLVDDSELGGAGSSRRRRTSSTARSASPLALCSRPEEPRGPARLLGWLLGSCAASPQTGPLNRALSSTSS
# Protocol: The ability of the disclosed compounds to act as agonists for the hCRTH2 receptor was determined by their ability to cause increases in intracellular calcium via binding to the CRTH2 receptor.
# Assays were performed on HEK 293EBNA-hCRTH2 cells that had been grown in DMEM media containing 10% FBS, […] puromycin and 1% penicillin/streptomycin/glutamine (PSG) at 37° C. in 5% CO2 or on HT1080-hCRTH2 cells (a HT1080 cell line stably expressing human CRTH2) that had been grown in alphaMEM media containing 10% FBS, 500 μg/ml hygromycin, 200 nM methotrexate and 1% PSG at 37° C. in 5% CO2.
# For the assay, HEK 293EBNA-hCRTH2 cells or HT1080-hCRTH2 cells were grown to approximately 90% confluency and then dislodged from the plate with Trypsin-EDTA, resuspended in DMEM media, seeded in 384 well plates at 2×10^4 cells per well and incubated overnight at 37° C. The cells were loaded with a calcium sensing dye by removing the growth media and replacing it with 30 μL of dye loading Ringer's buffer (136 mM […], 5.4 mM D-Glucose, 20 mM Hepes pH 7.4, 2.1 mM MgCl2, 0.8 mM CaCl2, 0.2% BSA with 1× Calcium3Dye (Molecular Devices) and 2.5 mM Probenecid (Sigma)) per well. The cells were incubated at 37° C. for 1 hour to allow the dye to enter the cells. Compounds were serially diluted in DMSO and then diluted to 4× their final concentration with Ringer's buffer. The compounds were added to a 384 well plate in quadruplicate. In addition to test compounds, several wells contained Ringer's buffer with DMSO. These wells serve as control wells. 10 μL was transferred from compound/control plate to the plate containing cells loaded with dye by a fluorescent imaging plate reader (Molecular Devices). The fluorescence was measured every 4 seconds for 4 minutes. These measurements indicated the level of intracellular calcium. Increases in fluorescence relative to wells containing buffer only indicated an agonist effect of the compound. Measurement at various compound concentrations allowed one to determine the EC50 for these compounds. Following the 4 minute incubation with compound, 20 μL of Ringer's buffer with either 10 nM or 500 nM PGD2 (approximate EC75 for PGD2 in HEK 293EBNA-hCRTH2 cells and HT1080-hCRTH2 cells, respectively) was added to the wells. Inhibition by the compounds of the calcium response due to antagonism of PGD2 action on CRTH2 is reflected by a decrease in fluorescent signal relative to wells containing no compound. The fluorescence was measured every 2 seconds for 10 seconds before addition of PGD2 and every 2 seconds for 110 seconds following addition. Measurement at various compound concentrations allowed one to determine the IC50 for these compounds. EC50 and IC50 values were determined from the experimental results by nonlinear regression using the Prism 4.0 software.
# human CRTH2 [2] = target: T1, human CRTH2; assay: CRTH-2 binding assay (scintillation proximity assay, inhibition of 3H-PGD2 binding); parameters: expressed in transfected cells; host or cells: HEK 293EBNA-hCRTH2 (membrane preparation); conditions: inhibition of 3H-PGD2 (3.6 nM) binding to HEK 293EBNA-hCRTH2 membranes; Ki calculated from IC50
# Outline: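 Membranes from HEK 293EBNA cells stably expressing human CRTH2 (~20 μg protein/100 μL) with SPA beads and 3.6 nM 3H-PGD2 in 10 mM Hepes pH 7.4, 1 mM EDTA, 10 mM MnCl2, glycerol, 2 h at room temperature, seven compound concentrations in triplicate. Nonspecific binding defined with indomethacin; IC50 converted to Ki using Kd and radioligand concentration.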
SMILES,IC50 (human CRTH2 [1]) [nM],Ki (human CRTH2 [2]) [nM]
"Cc1onc(-c2ccccc2)c1CN1C(c2c(C)n(CC(=O)O)c3ccc(Cl)cc23)c2ccccc2S1(=O)=O (stereo not shown) [Example 61, {5-Chloro-2-methyl-3-[2-(5-methyl-3-phenyl-isoxazol-4-ylmethyl)-1,1-dioxo-2,3-dihydro-1H-1λ^6-benzo[d]isothiazol-3-yl]-indol-1-yl}-acetic acid]",170,< 100
"Cc1noc(C)c1CN1C(c2c(C)n(CC(=O)O)c3ccccc23)c2ccc(F)cc2S1(=O)=O (stereo not shown) [Example 62, {3-[2-(3,5-Dimethyl-isoxazol-4-ylmethyl)-6-fluoro-1,1-dioxo-2,3-dihydro-1H-1λ^6-benzo[d]isothiazol-3-yl]-2-methyl-indol-1-yl}-acetic acid]",22,< 100
"O=C(O)Cn1cc(C2NS(=O)(=O)c3ccccc32)c2cc(Br)ccc21 (stereo not shown) [Example 8, [5-Bromo-3-(1,1-dioxo-2,3-dihydro-1H-1λ^6-benzo[d]isothiazol-3-yl)-indol-1-yl]-acetic acid]",,< 10000
"C=CCN1C(c2c(C)n(CC(=O)O)c3ccccc23)c2ccccc2S1(=O)=O (stereo not shown) [Example 45, [3-(2-Allyl-1,1-dioxo-2,3-dihydro-1H-1λ^6-benzo[d]isothiazol-3-yl)-2-methyl-indol-1-yl]-acetic acid]",,< 1000
"CCOC(=O)CN1C(c2c(C)n(CC(=O)O)c3ccccc23)c2ccccc2S1(=O)=O (stereo not shown) [Example 40, [3-(2-Ethoxycarbonylmethyl-1,1-dioxo-2,3-dihydro-1H-1λ^6benzo[d]isothiazol-3-yl)-2-methyl-indol-1-yl]-acetic acid]",,< 1000
"Cc1c(-c2nn(Cc3ccccc3)c(=O)c3ccccc23)c2cc(Cl)ccc2n1CC(=O)O [Example 16, [3-(3-Benzyl-4-oxo-3,4-dihydro-phthalazin-1-yl)-5-chloro-2-methyl-indol-1-yl]-acetic acid]",19,< 100
"COc1ccc2c(c1)c(C1c3ccccc3S(=O)(=O)N1Cc1ccc(C#N)cc1)cn2CC(=O)O (stereo not shown) [Example 57, {3-[2-(4-Cyano-benzyl)-1,1-dioxo-2,3-dihydro-1H-1λ^6-benzo[d]isothiazol-3-yl]-5-methoxy-indol-1-yl}-acetic acid]",,< 10000
"Cc1c(C2=NN(Cc3ccccc3F)S(=O)(=O)c3ccccc32)c2cc(F)ccc2n1CC(=O)O [Example 81, {3-[2-(2-Fluoro-benzyl)-1,1-dioxo-1,2-dihydro-1λ^6-benzo[e][1,2,3]thiadiazin-4-yl]-5-fluoro-2-methyl-indol-1-yl}-acetic acid]",,< 100
"Cc1c(C2(C)c3ccccc3S(=O)(=O)N2Cc2cccc(F)c2)c2ccccc2n1CC(=O)O (stereo not shown) [Example 66, {3-[2-(3-Fluoro-benzyl)-3-methyl-1,1-dioxo-2,3-dihydro-1H-1λ^6-benzo[d]isothiazol-3-yl]-2-methyl-indol-1-yl}-acetic acid]",,< 1000

# Further lines, results first:
IC50 (human CRTH2 [1]) [nM],Ki (human CRTH2 [2]) [nM],SMILES
60,< 100,"Cc1c(-c2nn(Cc3ccc(F)cc3)c(=O)c3ccccc23)c2cc(Cl)ccc2n1CC(=O)O [Example 24, {5-Chloro-3-[3-(4-fluoro-benzyl)-4-oxo-3,4-dihydro-phthalazin-1-yl]-2-methyl-indol-1-yl}-acetic acid]"
,< 100,"CCOC(=O)CN1C(c2c(C)n(CC(=O)O)c3ccc(Cl)cc23)c2ccccc2S1(=O)=O (stereo not shown) [Example 59, [5-Chloro-3-(2-ethoxycarbonylmethyl-1,1-dioxo-2,3-dihydro-1H-1 λ^6-benzo[d]isothiazol-3-yl)-2-methyl-indol-1-yl]-acetic acid]"
,< 1000,"Cc1c(C2=NN(Cc3ccc(OC(F)(F)F)cc3)S(=O)(=O)c3ccccc32)c2cc(F)ccc2n1CC(=O)O [Example 84, {3-[2-(4-Trifluoromethoxy-benzyl)-1,1-dioxo-1,2-dihydro-1λ^6-benzo[e][1,2,3]thiadiazin-4-yl]-5-fluoro-2-methyl-indol-1-yl}-acetic acid]"
,< 1000,"O=C(O)Cn1cc(C2NS(=O)(=O)c3ccccc32)c2c(Cl)cccc21 (stereo not shown) [Example 11, [4-Chloro-3-(1,1-dioxo-2,3-dihydro-1H-1λ^6-benzo[d]isothiazol-3-yl)-indol-1-yl]-acetic acid]"
,< 100,"Cc1c(C2=NN(C(C)c3ccccc3)S(=O)(=O)c3ccccc32)c2cc(F)ccc2n1CC(=O)O (stereo not shown) [Example 86, {3-[2-(1-phenyl-ethyl)-1,1-dioxo-1,2-dihydro-1λ^6-benzo[e][1,2,3]thiadiazin-4-yl]-5-fluoro-2-methyl-indol-1-yl}-acetic acid]"
,< 100,"COc1ccc(CN2N=C(c3c(C)n(CC(=O)O)c4ccc(F)cc34)c3ccccc3S2(=O)=O)cc1 [Example 80, {3-[2-(4-Methoxy-benzyl)-1,1-dioxo-1,2-dihydro-1λ^6-benzo[e][1,2,3]thiadiazin-4-yl]-5-fluoro-2-methyl-indol-1-yl}-acetic acid]"
